Data from patent US4520026A, “Indolizine derivatives and use as cardiovascular agents” (S. A. Labaz N.V., priority 1982, dated 1985).

Experiments:
[1] = tested on: epinephrine-increased blood-pressure (anti-α effect); assay: Antiadrenergic effect: anti-α effect (reduction of epinephrine-increased blood-pressure); format: in vivo; conditions: dog; for inhibition in vivo at 7.5 mg/kg: dose 7.5 mg/kg i.v.
Description: (§1) The purpose of this test was to determine the capacity of the compounds under study to reduce epinephrine-increased blood-pressure (anti-α effect) and epinephrine-accelerated heart rate (anti-β effect) in the dog previously anaesthetized with pentobarbital and atropinized.
(§2) For each dog, the dose of epinephrine was first determined which provoked a reproductible increase by about 100 mm. Hg in the arterial pressure (between 5 and 10 μg/kg). After that, the dose of epinephrine so determined was administered followed by a dose by intravenous route of the compound to be studied. The percentage of reduction of the hypertension provoked by the compound under study in comparison with the hypertension previously obtained (about 100 mm. Hg) was then registered.
(§3) The percentage of reduction of the epinephrine-induced acceleration of heart-rate produced by the compound under study in comparison with the tachycardia previously measured (about 70 beats) was then registered. In both cases, the results were expressed as follows: […]
(§4) + for a <50%-reduction of the increase in pressure or cardiac frequency
(§5) ++ for a ≥50%-reduction of the increase in pressure or cardiac frequency
(§6) +++ for a subtotal reduction of the increase in pressure or cardiac frequency

[2] = tested on: epinephrine-accelerated heart rate (anti-β effect); assay: Antiadrenergic effect: anti-β effect (reduction of epinephrine-accelerated heart rate); format: in vivo; conditions: dog; for inhibition in vivo at 7.5 mg/kg: dose 7.5 mg/kg i.v.
Description: as §1, §2, §3, §4, §5, §6

[3] = Canis lupus familiaris, iv, dose 10 mg/kg i.v.
[4] = Canis lupus familiaris, iv, dose 7.8 mg/kg i.v.
[5] = Canis lupus familiaris, iv, dose 5 mg/kg i.v.
[6] = Canis lupus familiaris, iv, dose 7 mg/kg i.v.

For CCCc1c(Br)c2ccccn2c1C(=O)c1cc(Br)c(OCCCN(CCC)CCC)c(Br)c1 [Br/Br/Br/n-C3H7/n-C3H7/3, 1-Bromo-2-n-propyl-3-[4-(3-di-n-propylaminopropyl)-oxy-3,5-dibromo-benzoyl]-indolizine], the Anti-α effect ([1]; dose 10 mg/kg i.v.) was “+++” and the Anti-β effect ([2]; dose 10 mg/kg i.v.) was “+++”.

For CCCCN(CCCC)CCCOc1ccc(C(=O)c2c(-c3ccc(F)cc3)c(Br)c3ccccn23)cc1Br [Br/Br/H/drawing 23/n-C4H9/3], the Anti-α effect ([1]; dose 10 mg/kg i.v.) was “+++” and the inhibition in vivo at 10 mg/kg [2, 3] was > 50%.

With CCCN(CCC)CCCOc1c(Cl)cc(C(=O)c2c(-c3ccccc3)c(Br)c3ccccn23)cc1Cl [Br/Cl/Cl/drawing 39/n-C3H7/3, 1-Bromo-2-phenyl-3-[4-(3-di-n-propylaminopropyl)-oxy-3,5-dichloro-benzoyl]-indolizine] the inhibition in vivo at 10 mg/kg [1, 3] was > 50% and the inhibition in vivo at 10 mg/kg [2, 3] was > 50%.

In the case of CCCCN(CCCC)CCCOc1c(Cl)cc(C(=O)c2c(-c3ccccc3)c(Br)c3ccccn23)cc1Cl [Br/Cl/Cl/drawing 40/n-C4H9/3, 1-Bromo-2-phenyl-3-[4-(3-di-n-butylaminopropyl)-oxy-3,5-dichloro-benzoyl]-indolizine], the inhibition in vivo at 10 mg/kg [1, 3] is reported as > 50% and the inhibition in vivo at 10 mg/kg [2, 3] is reported as > 50%.

CCCN(CCC)CCCOc1ccc(C(=O)c2c(CC)c(Br)c3ccccn23)cc1Cl [Br/Cl/H/C2H5/n-C3H7/3, 1-Bromo-2-ethyl-3-[4-(3-di-n-propylaminopropyl)-oxy-3-chloro-benzoyl]-indolizine] was tested, and the inhibition in vivo at 7.8 mg/kg [1, 4] was > 50% and the inhibition in vivo at 7.8 mg/kg [2, 4] was > 50%.

With CCCCN(CCCC)CCCOc1ccc(C(=O)c2c(CC)c(Br)c3ccccn23)cc1Cl [Br/Cl/H/C2H5/n-C4H9/3, 1-Bromo-2-ethyl-3-[4-(3-di-n-butylaminopropyl)-oxy-3-chloro-benzoyl]-indolizine] the Anti-α effect ([1]; dose 10 mg/kg i.v.) was “+++” and the Anti-β effect ([2]; dose 10 mg/kg i.v.) was “+++”.

In the case of CCCCN(CCCC)CCCOc1ccc(C(=O)c2c(-c3ccccc3)c(Br)c3ccccn23)cc1Cl [Br/Cl/H/drawing 26/n-C4H9/3], the inhibition in vivo at 10 mg/kg [1, 3] is reported as > 50% and the Anti-β effect ([2]; dose 10 mg/kg i.v.) is reported as “+++”.

With CCCN(CCC)CCCOc1ccc(C(=O)c2c(-c3ccc(Br)cc3)c(Br)c3ccccn23)cc1Cl [Br/Cl/H/drawing 27/n-C3H7/3] the inhibition in vivo at 10 mg/kg [1, 3] was > 50% and the inhibition in vivo at 10 mg/kg [2, 3] was > 50%.

With CCCCN(CCCC)CCCOc1ccc(C(=O)c2c(-c3ccc(Cl)cc3)c(Br)c3ccccn23)cc1Cl [Br/Cl/H/drawing 28/n-C4H9/3] the inhibition in vivo at 10 mg/kg [1, 3] was > 50% and the inhibition in vivo at 10 mg/kg [2, 3] was > 50%.

For CCCN(CCC)CCCOc1ccc(C(=O)c2c(-c3ccc(Cl)cc3)c(Br)c3ccccn23)cc1Cl [Br/Cl/H/drawing 30/n-C3H7/3], the Anti-α effect ([1]; dose 10 mg/kg i.v.) was “+++” and the inhibition in vivo at 10 mg/kg [2, 3] was > 50%.

For CCCN(CCC)CCCOc1ccc(C(=O)c2c(-c3cccc(Br)c3)c(Br)c3ccccn23)cc1Cl [Br/Cl/H/drawing 32/n-C3H7/3], the Anti-α effect ([1]; dose 10 mg/kg i.v.) was “+++” and the Anti-β effect ([2]; dose 10 mg/kg i.v.) was “+++”.

In the case of CCCCN(CCCC)CCCOc1ccc(C(=O)c2c(CC)c(Br)c3ccccn23)cc1 [Br/H/H/C2H5/n-C4H9/3, 1-Bromo-2-ethyl-3-[4-(3-di-n-butylaminopropyl)-oxy-benzoyl]-indolizine], the Anti-α effect ([1]; dose 6 mg/kg i.v.) is reported as “+++” and the Anti-β effect ([2]; dose 6 mg/kg i.v.) is reported as “+++”.

With CCCCN(CCCC)CCCOc1ccc(C(=O)c2c(CC)c(Br)c3ccccn23)cc1OC [Br/OCH3/H/C2H5/n-C4H9/3, 1-Bromo-2-ethyl-3-[4-(3-di-n-butylaminopropyl)-oxy-3-methoxy-benzoyl]-indolizine] the inhibition in vivo at 5 mg/kg [1, 5] was > 50% and the inhibition in vivo at 5 mg/kg [2, 5] was > 50%.

In the case of CCCN(CCC)CCCOc1ccc(C(=O)c2c(C)c(Br)c3ccccn23)cc1OC [Br/OCH3/H/CH3/n-C3H7/3, 1-Bromo-2-methyl-3-[4-(3-di-n-propylaminopropyl)-oxy-3-methoxy-benzoyl]-indolizine], the inhibition in vivo at 7.5 mg/kg ([1]; Canis lupus familiaris, iv) is reported as > 50% and the inhibition in vivo at 7.5 mg/kg ([2]; Canis lupus familiaris, iv) is reported as > 50%.

With CCCCN(CCCC)CCCOc1ccc(C(=O)c2c(C)c(Br)c3ccccn23)cc1OC [Br/OCH3/H/CH3/n-C4H9/3, 1-Bromo-2-methyl-3-[4-(3-di-n-butylaminopropyl)-oxy-3-methoxy-benzoyl]-indolizine] the inhibition in vivo at 7 mg/kg [1, 6] was > 50% and the inhibition in vivo at 7 mg/kg [2, 6] was > 50%.

With CCCCN(CCCC)CCCOc1ccc(C(=O)c2c(CC)c(C)c3ccccn23)cc1Br [CH3/Br/H/C2H5/n-C4H9/3, 1-Methyl-2-ethyl-3-[4-(3-di-n-butylaminopropyl)-oxy-3-bromo-benzoyl]-indolizine] the Anti-α effect ([1]; dose 2 mg/kg i.v.) was “+++” and the inhibition in vivo at 2 mg/kg ([2]; Canis lupus familiaris, iv, dose 2 mg/kg i.v.) was > 50%.

For CCCCN(CCCC)CCCOc1ccc(C(=O)c2c(C)c(C)c3ccccn23)cc1Br [CH3/Br/H/CH3/n-C4H9/3, 1,2-Dimethyl-3-[4-(3-di-n-butylaminopropyl)-oxy-3-bromo-benzoyl]-indolizine], the inhibition in vivo at 10 mg/kg [1, 3] was > 50% and the inhibition in vivo at 10 mg/kg [2, 3] was > 50%.

For CCCCN(CCCC)CCCOc1ccc(C(=O)c2c(-c3ccccc3)c(C)c3ccccn23)cc1Br [CH3/Br/H/drawing 45/n-C4H9/3, 1-Methyl-2-phenyl-3-[4-(3-di-n-butylaminopropyl)-oxy-3-bromo-benzoyl]-indolizine], the Anti-α effect ([1]; dose 6.2 mg/kg i.v.) was “+++” and the inhibition in vivo at 6.2 mg/kg ([2]; Canis lupus familiaris, iv, dose 6.2 mg/kg i.v.) was > 50%.

In the case of CCCN(CCC)CCCOc1ccc(C(=O)c2c(-c3ccccc3)c(C)c3ccccn23)cc1Br [CH3/Br/H/drawing 46/n-C3H7/3, 1-Methyl-2-phenyl-3-[4-(3-di-n-propylaminopropyl)-oxy-3-bromo-benzoyl]-indolizine], the inhibition in vivo at 5 mg/kg [1, 5] is reported as > 50% and the inhibition in vivo at 5 mg/kg [2, 5] is reported as > 50%.

In the case of CCCCN(CCCC)CCCOc1ccc(C(=O)c2c(CCC)c(C)c3ccccn23)cc1Br [CH3/Br/H/n-C3H7/n-C4H9/3, 1-Methyl-2-n-propyl-3-[4-(3-di-n-butylaminopropyl)-oxy-3-bromo-benzoyl]-indolizine], the Anti-α effect ([1]; dose 10 mg/kg i.v.) is reported as “+++” and the Anti-β effect ([2]; dose 10 mg/kg i.v.) is reported as “+++”.

CCCCc1c(C)c2ccccn2c1C(=O)c1ccc(OCCCN(CCCC)CCCC)c(Br)c1 [CH3/Br/H/n-C4H9/n-C4H9/3, 1-Methyl-2-n-butyl-3-[4-(3-di-n-butylaminopropyl)-oxy-3-bromo-benzoyl]-indolizine] was tested, and the inhibition in vivo at 7.5 mg/kg ([1]; Canis lupus familiaris, iv) was > 50% and the inhibition in vivo at 7.5 mg/kg ([2]; Canis lupus familiaris, iv) was > 50%.

For CCCCN(CCCC)CCCOc1ccc(C(=O)c2c(-c3ccccc3)c(C)c3ccccn23)cc1 [CH3/H/H/drawing 47/n-C4H9/3, 1-Methyl-2-phenyl-3-[4-(3-di-n-butylaminopropyl)-oxy-benzoyl]-indolizine], the Anti-α effect ([1]; dose 6.3 mg/kg i.v.) was “+++” and the Anti-β effect ([2]; dose 6.3 mg/kg i.v.) was “+++”.

CCCN(CCC)CCCOc1ccc(C(=O)c2c(-c3ccccc3)c(C)c3ccccn23)cc1 [CH3/H/H/drawing 48/n-C3H7/3, 1-Methyl-2-phenyl-3-[4-(3-di-n-propylaminopropyl)-oxy-benzoyl]-indolizine] was tested, and the Anti-α effect ([1]; dose 5 mg/kg i.v.) was “+++” and the Anti-β effect ([2]; dose 5 mg/kg i.v.) was “+++”.

CCCN(CCC)CCCOc1c(Br)cc(C(=O)c2c(-c3ccccc3)c(Cl)c3ccccn23)cc1Br [Cl/Br/Br/drawing 38/n-C3H7/3, 1-Chloro-2-phenyl-3-[4-(3-di-n-propylaminopropyl)-oxy-3,5-dibromo-benzoyl]-indolizine] was tested, and the inhibition in vivo at 10 mg/kg [1, 3] was < 50% and the inhibition in vivo at 10 mg/kg [2, 3] was < 50%.

For CCCCN(CCCC)CCCOc1ccc(C(=O)c2c(CC)c(Cl)c3ccccn23)cc1Br [Cl/Br/H/C2H5/n-C4H9/3, 1-Chloro-2-ethyl-3-[4-(3-di-n-butylaminopropyl)-oxy-3-bromo-benzoyl]-indolizine], the Anti-α effect ([1]; dose 10 mg/kg i.v.) was “+++” and the Anti-β effect ([2]; dose 10 mg/kg i.v.) was “+++”.
